From US20210115040A1, “OGA INHIBITOR COMPOUNDS” (Janssen Pharmaceutica NV, priority 2018, published 2021) come the findings set out here.

The assay addresses T1, OGA (Mus musculus, UniProt Q9EQQ9).
T1 construct: from tissue; host or cells: mouse brain (sagittal sections, forebrain area)
T1 sequence (Q9EQQ9 1-916): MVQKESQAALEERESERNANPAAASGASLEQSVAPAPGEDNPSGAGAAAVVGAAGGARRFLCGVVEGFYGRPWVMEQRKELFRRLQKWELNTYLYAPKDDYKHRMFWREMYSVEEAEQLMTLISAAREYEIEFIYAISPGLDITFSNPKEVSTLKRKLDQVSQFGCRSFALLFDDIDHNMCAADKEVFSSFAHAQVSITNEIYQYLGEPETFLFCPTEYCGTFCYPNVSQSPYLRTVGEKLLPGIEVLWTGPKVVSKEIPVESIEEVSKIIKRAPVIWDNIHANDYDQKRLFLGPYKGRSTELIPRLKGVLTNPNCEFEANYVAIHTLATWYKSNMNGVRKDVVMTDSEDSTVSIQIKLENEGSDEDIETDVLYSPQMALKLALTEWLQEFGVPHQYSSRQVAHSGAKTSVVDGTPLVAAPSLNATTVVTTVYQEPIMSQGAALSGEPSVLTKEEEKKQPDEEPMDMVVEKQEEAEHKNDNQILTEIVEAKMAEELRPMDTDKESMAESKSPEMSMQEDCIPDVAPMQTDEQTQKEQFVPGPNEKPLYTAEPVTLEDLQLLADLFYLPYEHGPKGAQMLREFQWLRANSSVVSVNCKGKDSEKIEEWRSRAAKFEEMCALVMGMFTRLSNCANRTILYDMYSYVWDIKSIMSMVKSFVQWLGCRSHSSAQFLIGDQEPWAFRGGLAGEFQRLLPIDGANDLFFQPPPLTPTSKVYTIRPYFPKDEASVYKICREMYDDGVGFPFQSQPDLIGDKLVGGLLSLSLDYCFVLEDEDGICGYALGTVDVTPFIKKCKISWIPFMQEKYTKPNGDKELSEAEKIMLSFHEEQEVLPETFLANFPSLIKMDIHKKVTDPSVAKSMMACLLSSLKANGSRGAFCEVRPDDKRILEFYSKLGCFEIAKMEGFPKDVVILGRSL
Nature of the assay: Ex vivo OGA occupancy assay using [3H]-ligand (brain sections, autoradiography). In kind it is in vivo. The settings on record: po, Male NMRI or C57Bl6j mice, p.o., 24 h after administration, forebrain area, normalised to vehicle, read-out: Occupancy (% +/- sd). How it is done:
Male NMRI or C57Bl6j mice were treated by oral (p.o.) administration of vehicle or compound. Animals were sacrificed 24 hours after administration. Brains were immediately removed from the skull, hemispheres were separated and the right hemisphere, for ex vivo OGA occupancy assay, was rapidly frozen in dry-ice cooled 2-methylbutane (−40° C.). Twenty […]m-thick sagittal sections were cut using a Leica CM 3050 cryostat-microtome (Leica, Belgium), thaw-mounted on microscope slides (SuperFrost Plus Slides, Thermo Fisher Scientific) and stored at −20° C. until use. After thawing, sections were dried under a cold stream of air. The sections were not washed prior to incubation. The 10 minutes incubation with 3 nM [^3H]-ligand was rigorously controlled. All brain sections (from compound-treated and vehicle-treated animals) were incubated in parallel. After incubation, the excess of [^3H]-ligand was washed off in ice-cold buffer (PBS 1× and 1% BSA) 2 times 10 minutes, followed by a quick dip in distilled water. The sections were then dried under a stream of cold air.
Radioactivity in the forebrain area of brain slices was measured using a β-imager with M3 vision analysis software (Biospace Lab, Paris). Specific binding was calculated as the difference between total binding and non-specific binding measured in Thiamet-G (10 μM) treated sections. […]

Regarding `Cc1cc(C2CCCN(C(C)c3ccc4sc(C)nc4n3)C2)cc(C)n1` (racemic) [Compound 39], the receptor occupancy at 25 mg/kg was 3.33%.
